Measurements published in US4204069A, “Reductive alkylation” (Merck & Co., Inc., priority 1978, dated 1980).

Experiments:
β-1 adrenergic receptors [1] = biological target: T1, β-1 adrenergic receptors (Cavia porcellus, UniProt H0W3H1); assay: Guinea pig atrial strips, atrial rate (chronotropic response), β-1 agonist activity; format: cell-based
T1 construct: conventionally isolated tissue preparations (guinea pig atrial and tracheal strips); from tissue; host or cells: guinea pig atrial strips
Procedure: (§1) The pharmaceutical activity of the present compounds was determined in vitro using conventionally isolated tissue preparations (guinea pig atrial and tracheal strips). […] Both chronotropic (rate) and inotropic (force) responses were thereby assessed. […] The observed effect on tracheal muscle relaxation is equated with and considered to be an indication of bronchodilator activity. The β-1 and β-2 adrenergic receptor designations are those of Lands et al., Nature, 214, page 597 (1967).

β-1 adrenergic receptors [2] = biological target: T1, β-1 adrenergic receptors; assay: Guinea pig atrial strips, atrial force (inotropic response), β-1 agonist activity; format: cell-based; conditions: Atrial force (β-1)
Procedure: as §1

β-2 adrenergic receptors = biological target: T2, β-2 adrenergic receptors (Cavia porcellus, UniProt Q8K4Z4); assay: Guinea pig tracheal strips, tracheal muscle relaxation, β-2 agonist activity (bronchodilator activity); format: cell-based
T2 construct: conventionally isolated tissue preparations (guinea pig atrial and tracheal strips); from tissue; host or cells: guinea pig tracheal strips
T2 sequence (Q8K4Z4 whole entry): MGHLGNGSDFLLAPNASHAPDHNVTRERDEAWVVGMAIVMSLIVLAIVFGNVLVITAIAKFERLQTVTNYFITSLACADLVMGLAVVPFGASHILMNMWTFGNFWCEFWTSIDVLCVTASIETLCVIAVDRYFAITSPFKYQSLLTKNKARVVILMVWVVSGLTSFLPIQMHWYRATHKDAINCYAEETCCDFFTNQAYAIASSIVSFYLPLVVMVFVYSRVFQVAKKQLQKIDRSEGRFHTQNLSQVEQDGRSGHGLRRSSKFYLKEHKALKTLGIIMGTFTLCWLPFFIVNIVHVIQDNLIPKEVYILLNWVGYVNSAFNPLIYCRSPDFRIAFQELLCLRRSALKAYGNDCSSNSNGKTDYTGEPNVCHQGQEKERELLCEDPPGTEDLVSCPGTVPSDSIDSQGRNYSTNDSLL
Procedure: as §1

[3] = Blood pressure of a rat after intravenous injection; format: in vivo; conditions: injected intravenously

T1 sequence (H0W3H1 1-470): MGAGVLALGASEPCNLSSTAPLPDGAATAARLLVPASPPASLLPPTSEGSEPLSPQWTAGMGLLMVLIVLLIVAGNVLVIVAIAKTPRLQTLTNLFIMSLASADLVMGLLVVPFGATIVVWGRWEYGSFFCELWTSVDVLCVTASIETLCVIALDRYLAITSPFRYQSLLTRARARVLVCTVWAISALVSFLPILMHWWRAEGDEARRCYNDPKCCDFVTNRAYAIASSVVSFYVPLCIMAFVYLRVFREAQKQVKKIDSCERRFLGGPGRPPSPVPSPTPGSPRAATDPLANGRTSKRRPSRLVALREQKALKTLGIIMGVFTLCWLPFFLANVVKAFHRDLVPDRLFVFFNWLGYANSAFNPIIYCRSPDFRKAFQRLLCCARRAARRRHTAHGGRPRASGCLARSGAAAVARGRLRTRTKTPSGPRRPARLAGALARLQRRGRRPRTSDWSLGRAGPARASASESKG

relative activity (β-1 adrenergic receptors [1]; Atrial rate (β-1), [ED50 (R,S-ISO)/ED50 (R,S-BENZISO)] × 100): 0.355
Emax (β-1 adrenergic receptors [1]; Atrial rate (β-1), maximum response relative to R,S-ISO × 100, mean ± S.E.M.): 50 ± 9%
EC50 (β-1 adrenergic receptors [1]; Atrial rate (β-1), mean ± S.E.M., n=5, administered as the dihydrochloride, read-out: pD2 (negative logarithm of ED50) (converted)): 6.17 µM
cardiac stimulation (β-1 force and rate) (β-1 adrenergic receptors [1]; in words, from Table I): cardiac stimulant
relative activity (β-1 adrenergic receptors [2]; [ED50 (R,S-ISO)/ED50 (R,S-BENZISO)] × 100): 0.355
Emax (β-1 adrenergic receptors [2]; maximum response relative to R,S-ISO × 100, mean ± S.E.M.): 33 ± 12%
EC50 (β-1 adrenergic receptors [2]; mean ± S.E.M., n=3, administered as the dihydrochloride, read-out: pD2 (negative logarithm of ED50) (converted)): 3.8 µM
relative activity (β-2 adrenergic receptors; Tracheal relaxation (β-2), [ED50 (R,S-ISO)/ED50 (R,S-BENZISO)] × 100): 4.79
Emax (β-2 adrenergic receptors; Tracheal relaxation (β-2), maximum response relative to R,S-ISO × 100, mean ± S.E.M.): 58 ± 7%
EC50 (β-2 adrenergic receptors; Tracheal relaxation (β-2), mean ± S.E.M., n=4, administered as the dihydrochloride, read-out: pD2 (negative logarithm of ED50) (converted)): 1660 nM
bronchodilator activity (β-2) (β-2 adrenergic receptors; in words, from Table I): good bronchodilator activity
Ratio, β-2/β-1 (β-2 adrenergic receptors; relative activity (tracheal relaxation)/relative activity (atrial rate)): 13.5
Structure (SMILES): CC(C)NCC(O)c1ccc2nc[nH]c2c1 (racemic) [R, S-BENZISO, R,S-1-(5-benzimidazolyl)-2-isopropylaminoethanol]
bronchodilator selectivity versus isoproterenol (β-2 adrenergic receptors; in words, from the β-2/β-1 ratio): more bronchodilator selective than is isoproterenol
effect on blood pressure [3]: decrease blood pressure
